From patent US9469878B2, “Methods of treating cancer comprising targeting NQO1” (The Board of Regents of the University of Texas System, priority 2010, dated 2016)
Several values for one entry are separate records, joined by “and”; a condition that tells them apart may be missing. Equal entries are not always repeated.

Experiments:
[1] = test system: A549 cells; test: LD50 responses of NSCLC cell lines treated with β-Lap; assay type: cell-based, human; conditions: NQO1 enzyme activities ≧50 units, β-Lap 2 h, 7 days later
Description: (§1) LD50 responses were plotted as a function of NQO1 enzymatic levels. The notations, *1/*1 and *2/*2 represent the NQO1 status of each cell line as homozygous wild type (*1/*1) or homozygous polymorphic (*2/*2) genotypes. […] In (b), Kaplan-Meier survival curve of mice bearing orthotopic lung tumors implanted with *1/*1 A549 cells. Mice were treated intravenously (5 doses every other day) with β-lap-HPβ-CD or vehicle alone (HPβ-CD).

[2] = test system: H441 cells; test: as above; assay type: cell-based, human; conditions: NQO1 enzyme activities ≧50 units, β-Lap 2 h, 7 days later
Description: as §1

[3] = test system: PARP1 in 231-NQ+ cells; test: PAR formation (PARP1 hyperactivation), Western blot; assay type: cell-based, human; conditions: after 2 μM β-lap
[4] = test system: orthotopic lung tumors, *2/*2 or *3/*3; test: Survival of mice bearing orthotopic lung tumors; assay type: in vivo; conditions: *2/*2 or *3/*3 tumors, β-lap-HPβ-CD intravenously, 5 doses every other day
Description: FIG. 16 depicts NQO1 levels predict response to NQO1 bioactivatable therapies. In (a) LD50 responses of non-small cell lung cancer (NSCLC) cell lines treated with β-Lap for 2 h and harvester 7 days later. LD50 responses were plotted as a function of NQO1 enzymatic levels. The notations, *1/*1 and *2/*2 represent the NQO1 status of each cell line as homozygous wild type (*1/*1) or homozygous polymorphic (*2/*2) genotypes. Note that all heterozygote cells containing one wild-type allele (*1) are wild-type, phenotypically, for NQO1 expression, such that only homozygous *2/*2 or 3/3 are considered non-responsive to NQO1 bioactivatable drugs. Note the high resistance of H596 and H2862 cell lines to β-lapachone compared to all of the wild-type *1/*1 cells with LD50 values less than 5 μM. Note also that *3/*3 SNPs in NQO1 are far more rare than *2/*2 single point mutations in NQO1. In (b), Kaplan-Meier survival curve of mice bearing orthotopic lung tumors implanted with *1/*1 A549 cells. Mice were treated intravenously (5 doses every other day) with β-lap-HPβ-CD or vehicle alone (HPβ-CD). Similar studies with *2/*2 or *3/*3 tumors were performed and these tumors were non-responsive to β-lapachone or other NQO1 bioactivatable drug therapies.

[5] = target: NQO1 (Homo sapiens, UniProt P15559); test: NADH recycling assay (NQO1 futile cycling); assay type: biochemical; parameters: S9 Supernatants were prepared from cells in mid-log to late log phase growth; endogenous in cells; host or cells: cancer cell lines, mostly from a non-small cell lung cancer panel (e.g. Calu-3); S9 supernatants; conditions: in 5 min, NQO1 futile cycle
NQO1, sequence (P15559 whole entry): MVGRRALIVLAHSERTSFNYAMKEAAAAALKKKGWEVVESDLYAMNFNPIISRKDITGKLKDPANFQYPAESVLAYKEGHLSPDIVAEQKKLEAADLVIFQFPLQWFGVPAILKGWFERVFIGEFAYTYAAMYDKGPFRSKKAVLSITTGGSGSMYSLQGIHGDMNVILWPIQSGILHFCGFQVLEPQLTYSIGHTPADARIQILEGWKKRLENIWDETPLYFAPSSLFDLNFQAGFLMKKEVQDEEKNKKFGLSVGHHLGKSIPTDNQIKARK
Description: Assays were performed with either purified NQO1 or S9 extracts from MCF-7:WS8, or other cancer or normal cells. For the assay using purified NQO1, […] of recombinant human NQO1 was mixed with 200-500 μM NADH in 50 mM potassium phosphate buffer, pH 7.0.

[6] = test system: MDA-MB-231 cells expressing NQO1 (231+); test: Long term survival assay; assay type: cell-based, human; conditions: 231-NQ+ cells
Description: Cells were cultured and treated as described above.
Data were expressed as relative survival (treated/control×100%).

[7] = test system: HTB122; parameters: LD50 β-Lap + CAT: unit not given beside the values
Description: (§2) Cells were cultured and treated as described above. […] Experiments were repeated at least three times, and data expressed as relative survival (treated/control×100%) means±SEM. […] The multi-target model was used to describe the shape of relative survival curves. In this model, a final slope (D0) resulting from multiple-event killing and quasithreshold (Dq) doses were used to represent the size or width of the shoulder of the curve. The extrapolation number (n) is also a measure of the width of the shoulder. The three parameters, n, Do, and Dq were related by the expression: loge n=Dq/Do.
(§3) Cells were treated with β-lap with or without dicoumarol for 2 h. […] Data were expressed as relative survival (treated/control×100%). Experiments were repeated at least three times, and data expressed as relative survival means±SEM. […] Human mammary epithelial cells were plated in 48 well dishes in growth media containing a 50:50 mixture of MGEM/DME:F12 medium supplemented with insulin, human epidermal growth factor and hydrocortisone.

[8] = test system: HCC1937; parameters: LD50 β-Lap + CAT: unit not given beside the values
Description: as §2, §3

[9] = test system: MCF-7; parameters: LD50 β-Lap + CAT: unit not given beside the values
Description: as §2, §3

[10] = test system: HTB24; parameters: LD50 β-Lap + CAT: unit not given beside the values
Description: as §2, §3

[11] = test system: ZR751; parameters: LD50 β-Lap + CAT: unit not given beside the values
Description: as §2, §3

[12] = test system: H2185; parameters: LD50 β-Lap + CAT: unit not given beside the values
Description: as §2, §3

[13] = test system: H2882/NSCLC; test: β-lapachone lethality in NQO1 genotyped cancer cells; assay type: cell-based, human
Description: as §1
(§4) Cell lines, mostly from a 5-panel nonsmall cell lung cancer panel from the UT Southwestern SPORE, were assessed for NQO1 polymorphism status and then monitored for NQO1 enzyme assays using β-lapachone or the standard menadione substrates. […] NQO1*2/*2 and *3/*3 polymorphisms were detected from NQO1 *1/*1 wild-type sequences by PCR-RFLP. Genomic DNA was extracted from the cells using Qiagen spin columns. Using previously described oligonucleotide primers, PCR products underwent gel electrophoresis. Final genotyping was determined based on the size and pattern of separated bands diagnostic for *1/*1 (wild-type), or polymorphic *2/*2 or *3/*3 NQO1 polymorphisms.

[14] = test system: H596/NSCLC; test: as above; assay type: cell-based, human; conditions: NQO1 genotype *2/*2, 2 h exposure
Description: as §1, §4

[15] = test system: NQO1+ human cancer cells; conditions: cited from earlier work

With CC1(C)CCC2=C(O1)c1ccccc1C(=O)C2=O [β-Lap, 3,4-dihydro-2,2-dimethyl-2H-naphtho[1,2-b]pyran-5,6-dione] as the compound, how does the LD50 [1] read?
Its LD50 is 2.5 µM.

What about the LD50 [2] of the same compound?
The LD50 was 1.5 µM.

What about the “Time of peak PAR formation” value [3] of the same compound?
The value was 30 min.

And the Response of tumors [4]?
Its Response of tumors is “non-responsive”.

What about the “NAD(P)H used per mole of β-lap” value [5] of the same compound?
The value was over 60 mol.

What about the Lethal dose ([6]; 2 h) of the same compound?
Its Lethal dose is over 2 µM.

And the Sublethal dose ([6]; 2 h)?
Its Sublethal dose is 1 µM.

And the LD70 dose ([6]; 2 h treatment)?
The LD70 dose was about 2 µM.

What about the “LD50 β-Lap + CAT” value [7] of the same compound?
The value was 2.8.

What about the “LD50 p-Lap + DIC” value ([7]; human) of the same compound?
The value was 5.5.

What about the “LD50 β-Lap” value ([7]; human) of the same compound?
The value was 1.5.

And the “LD50 β-Lap + CAT” value [8]?
The value was 3.4.

And the “LD50 p-Lap + DIC” value ([8]; human)?
The value was 5.0.

And the “LD50 β-Lap” value ([8]; human)?
Its value is 2.2.

And the “LD50 β-Lap + CAT” value [9]?
Its value is 4.8.

What about the “LD50 p-Lap + DIC” value ([9]; human) of the same compound?
The value was 9.0.

And the “LD50 β-Lap” value ([9]; human)?
Its value is 1.7.

What about the “LD50 β-Lap + CAT” value [10] of the same compound?
The value was 3.5.

And the “LD50 p-Lap + DIC” value ([10]; human)?
The value was 6.2.

What about the “LD50 β-Lap” value ([10]; human) of the same compound?
Its value is 1.5.

What about the “LD50 β-Lap + CAT” value [11] of the same compound?
The value was 3.2.

And the “LD50 p-Lap + DIC” value ([11]; human)?
The value was 6.8.

And the “LD50 β-Lap” value ([11]; human)?
Its value is 1.4.

And the “LD50 β-Lap + CAT” value [12]?
The value was 2.6.

And the “LD50 p-Lap + DIC” value ([12]; human)?
The value was 6.4.

And the “LD50 β-Lap” value ([12]; human)?
Its value is 1.3.

And the “LD50 + DIC” value ([13]; *2/*2, 2 h, + dicoumarol (40 μM))?
The value was over 40 µM.

What about the “β-Lap Lethality LD50” value ([13]; NQO1 genotype *2/*2, 2 h exposure) of the same compound?
Its value is over 20 µM.

And the “β-Lap Lethality LD50” value [14]?
Its value is >20 µM and >10 µM.

And the Lethality ([15]; 1-2 μM treatments for 2-4 h)?
The Lethality was “not lethal”.

And the “Cell death responses (TUNEL staining)” value ([15]; 2-3 μM for 2-4 h)?
Its value is over 90%.
